Source: patent US20230255953A1, “USE OF ROLUPERIDONE IN PREVENTING RELAPSE IN SCHIZOPHRENIA PATIENTS” (Minerva Neurosciences, Inc., priority 2022, published 2023)

Test system: patients with negative symptoms of schizophrenia
Assay: Integrated analysis of Studies #1 and #2 (pooled ITT): PANSS-derived scores (NSFS, total, positive and negative subscales), DB, OL and whole study
Assay type: in vivo, human
Set-up: key to NSFS Score change from Baseline, Median: change from Baseline in PANSS NSFS points; higher score = more severe
Conditions: pooled ITT; for NSFS Score change from Baseline, Median / PANSS Negative Subscale Score change from Baseline, Mean (SD) / PANSS Negative Subscale Score change from Baseline, Median / PANSS Total Score change from Baseline, Mean (SD) / PANSS Total Score change from Baseline, Median / PANSS Positive Subscale Score change from Baseline, Mean (SD) / PANSS Positive Subscale Score change from Baseline, Median / NSFS Score change from Baseline, Mean (SD): Roluperidone Total; for NSFS Score change from Baseline, Median / PANSS Negative Subscale Score change from Baseline, Mean (SD) / PANSS Negative Subscale Score change from Baseline, Median / PANSS Total Score change from Baseline, Mean (SD) / PANSS Total Score change from Baseline, Median / NSFS Score change from Baseline, Mean (SD): DB; for NSFS Change from Active BL to Week 24, Mean (SD) / NSFS Change from Active BL to Week 24, Median / NSFS Change from Active BL to Week 52, Mean (SD) / NSFS Change from Active BL to Week 52, Median / NSFS Change from Active BL to Week 54, Mean (SD) / NSFS Change from Active BL to Week 54, Median / NSFS Change from Open-label BL to Week 24, Mean (SD) / NSFS Change from Open-label BL to Week 24, Median / NSFS Change from Open-label BL to Week 52, Mean (SD) / NSFS Change from Open-label BL to Week 52, Median / NSFS Change from Open-label BL to Week 54, Mean (SD) / NSFS Change from Open-label BL to Week 54, Median / NSFS Change from Study BL to Week 24, Mean (SD) / NSFS Change from Study BL to Week 24, Median / NSFS Change from Study BL to Week 52, Mean (SD) / NSFS Change from Study BL to Week 52, Median / NSFS Change from Study BL to Week 54, Mean (SD) / NSFS Change from Study BL to Week 54, Median: Roluperidone at Any Time
Protocol: The primary integrated analysis of the efficacy of Roluperidone compared with placebo for the treatment of negative symptoms of schizophrenia is based on the change from Baseline in the PANSS Marder's negative symptoms factor score (in this document referred to as NSFS) to Week 12. Efficacy is also supported by the analysis of change from Baseline in the PSP Total score and the CGI-S to Week 12.
The PANSS was assessed at the time points described in Table 4.
The PANSS-derived endpoints used in these studies and the integrated analyses are described in Table 5A and a summary of the individual PANSS items used by physicians and clinicians to measure the severity of the symptoms in a schizophrenia patient is provided in Table 5B. The scale is divided into three parts, a positive scale, which provides a “PANSS positive subscore”, a negative scale, which provides a “PANSS negative subscore”, and general psychopathology scale. The sum of these three parts provides a PANSS total score, which ranges from 30 to 210 (where higher scores indicate more severe symptoms). (See Kay, S. R., et al. “The positive and negative syndrome scale (PANSS) for schizophrenia,” Schizophr Bulletin, 13(2), 261-276 (1987) and Gopal, S., et al. “Improvement of Negative Symptoms in Schizophrenia with Paliperidone Palmitate 1-Month and 3-Month Long-Acting Injectables: Results from a Phase 3 Non-Inferiority Study” Neuropsychiatric Disease and Treatment, 681-690, DOI: 10.2147/NDT.5226296, both of which are incorporated by reference.)
The Efficacy data from Study Nos. 1 and 2 were pooled. The majority of patients in the pooled ITT population completed the DB period (502 patients overall, 66.3%), with similar rates in each treatment group (placebo: 69.8%, 32 mg Roluperidone: 65.3%, and 64 mg Roluperidone: 63.8%) (Table 12). The majority (62.7%) of those who completed the DB period entered the OL period. The most common reason for discontinuation during the DB period among patients overall was withdrawal of consent (15.6%), followed by adverse events (7.3%) and lack of efficacy (5.4%) (Table 12). […] Approximately twice as many patients in the Roluperidone groups (32 mg: 8.5%; 64 mg: 9.1%) discontinued due to adverse events compared with patients in the placebo group (4.3%). More patients in the placebo group discontinued due to lack of efficacy (6.7%) than in the Roluperidone groups (32 mg: 4.4%; 64 mg: 5.1%). The low number of patients who discontinued due to lack of efficacy or withdrawal of consent probably reflects a low level of worsening of positive symptoms.
The integrated analysis supporting the efficacy of Roluperidone as a treatment for the negative symptoms of schizophrenia in adults is presented below.

1H-Isoindol-1-one,2-[ [1-[2-(4-fluorophenyl)-2-oxoethyl]-4-piperidinyl]methyl]-2,3-dihydro-, hydrochloride, hydrate (1:1:2) [Roluperidone]
NSFS Score change from Baseline, Median (Week 4): −2.0 | PANSS Negative Subscale Score change from Baseline, Mean (SD) (Week 4): −2.5 (2.75) | PANSS Negative Subscale Score change from Baseline, Median (Week 4): −2.0 | PANSS Total Score change from Baseline, Mean (SD) (Week 4): −4.8 (7.13) | PANSS Total Score change from Baseline, Median (Week 4): −5.0 | PANSS Positive Subscale Score change from Baseline, Mean (SD) (Week 4): −0.4 (2.49) | PANSS Positive Subscale Score change from Baseline, Median (Week 4): 0.0 | NSFS Score change from Baseline, Mean (SD) (Week 8): −3.4 (3.25) | NSFS Score change from Baseline, Median (Week 8): −3.0 | PANSS Negative Subscale Score change from Baseline, Mean (SD) (Week 8): −3.6 (3.38) | PANSS Negative Subscale Score change from Baseline, Median (Week 8): −3.0 | PANSS Total Score change from Baseline, Mean (SD) (Week 8): −6.5 (8.35) | PANSS Total Score change from Baseline, Median (Week 8): −6.0 | PANSS Positive Subscale Score change from Baseline, Mean (SD) (Week 8): −0.5 (2.55) | PANSS Positive Subscale Score change from Baseline, Median (Week 8): 0.0 | NSFS Score change from Baseline, Mean (SD) (Week 12): −3.8 (3.39) | NSFS Score change from Baseline, Median (Week 12): −4.0 | PANSS Negative Subscale Score change from Baseline, Mean (SD) (Week 12): −4.0 (3.59) | PANSS Negative Subscale Score change from Baseline, Median (Week 12): −3.0 | PANSS Total Score change from Baseline, Mean (SD) (Week 12): −7.3 (8.66) | PANSS Total Score change from Baseline, Median (Week 12): −7.0 | PANSS Positive Subscale Score change from Baseline, Mean (SD) (Week 12): −0.6 (2.64) | PANSS Positive Subscale Score change from Baseline, Median (Week 12): 0.0 | NSFS Change from Active BL to Week 24, Mean (SD) (32 mg): −3.7 (3.45) | NSFS Change from Active BL to Week 24, Median (32 mg): −4.0 | NSFS Change from Active BL to Week 52, Mean (SD) (32 mg): −5.7 (3.95) | NSFS Change from Active BL to Week 52, Median (32 mg): −5.0 | NSFS Change from Active BL to Week 54, Mean (SD) (32 mg): −5.7 (3.55) | NSFS Change from Active BL to Week 54, Median (32 mg): −6.0 | NSFS Change from Open-label BL to Week 24, Mean (SD) (32 mg): −1.4 (2.51) | NSFS Change from Open-label BL to Week 24, Median (32 mg): −1.0 | NSFS Change from Open-label BL to Week 52, Mean (SD) (32 mg): −3.3 (3.23) | NSFS Change from Open-label BL to Week 52, Median (32 mg): −3.0 | NSFS Change from Open-label BL to Week 54, Mean (SD) (32 mg): −3.3 (3.45) | NSFS Change from Open-label BL to Week 54, Median (32 mg): −3.0 | NSFS Change from Study BL to Week 24, Mean (SD) (32 mg): −4.9 (3.61) | NSFS Change from Study BL to Week 24, Median (32 mg): −5.0 | NSFS Change from Study BL to Week 52, Mean (SD) (32 mg): −6.9 (3.95) | NSFS Change from Study BL to Week 52, Median (32 mg): −6.0 | NSFS Change from Study BL to Week 54, Mean (SD) (32 mg): −6.8 (3.80) | NSFS Change from Study BL to Week 54, Median (32 mg): −6.0 | NSFS Change from Active BL to Week 24, Mean (SD) (64 mg): −4.2 (3.92) | NSFS Change from Active BL to Week 24, Median (64 mg): −4.0 | NSFS Change from Active BL to Week 52, Mean (SD) (64 mg): −6.7 (4.23) | NSFS Change from Active BL to Week 52, Median (64 mg): −7.0 | NSFS Change from Active BL to Week 54, Mean (SD) (64 mg): −6.6 (4.40) | NSFS Change from Active BL to Week 54, Median (64 mg): −7.0 | NSFS Change from Open-label BL to Week 24, Mean (SD) (64 mg): −1.6 (3.02) | NSFS Change from Open-label BL to Week 24, Median (64 mg): −1.0 | NSFS Change from Open-label BL to Week 52, Mean (SD) (64 mg): −4.3 (3.77) | NSFS Change from Open-label BL to Week 52, Median (64 mg): −4.0 | NSFS Change from Open-label BL to Week 54, Mean (SD) (64 mg): −4.0 (3.88) | NSFS Change from Open-label BL to Week 54, Median (64 mg): −4.0 | NSFS Change from Study BL to Week 24, Mean (SD) (64 mg): −5.0 (3.49) | NSFS Change from Study BL to Week 24, Median (64 mg): −5.0 | NSFS Change from Study BL to Week 52, Mean (SD) (64 mg): −7.5 (3.61) | NSFS Change from Study BL to Week 52, Median (64 mg): −7.0 | NSFS Change from Study BL to Week 54, Mean (SD) (64 mg): −7.4 (3.81) | NSFS Change from Study BL to Week 54, Median (64 mg): −7.0 | NSFS Change from Active BL to Week 24, Mean (SD) (Total): −5.1 (3.52) | NSFS Change from Active BL to Week 24, Median (Total): −5.0 | NSFS Change from Active BL to Week 52, Mean (SD) (Total): −7.0 (3.84) | NSFS Change from Active BL to Week 52, Median (Total): −6.0 | NSFS Change from Active BL to Week 54, Mean (SD) (Total): −7.0 (3.56) | NSFS Change from Active BL to Week 54, Median (Total): −7.0 | NSFS Change from Open-label BL to Week 24, Mean (SD) (Total): −1.3 (2.56) | NSFS Change from Open-label BL to Week 24, Median (Total): −1.0 | NSFS Change from Open-label BL to Week 52, Mean (SD) (Total): −3.2 (2.99) | NSFS Change from Open-label BL to Week 52, Median (Total): −3.0 | NSFS Change from Open-label BL to Week 54, Mean (SD) (Total): −3.2 (3.29) | NSFS Change from Open-label BL to Week 54, Median (Total): −3.0 | NSFS Change from Study BL to Week 24, Mean (SD) (Total): −5.1 (3.52) | NSFS Change from Study BL to Week 24, Median (Total): −5.0 | NSFS Change from Study BL to Week 52, Mean (SD) (Total): −7.0 (3.84) | NSFS Change from Study BL to Week 52, Median (Total): −6.0 | NSFS Change from Study BL to Week 54, Mean (SD) (Total): −7.0 (3.56) | NSFS Change from Study BL to Week 54, Median (Total): −7.0
